In patent US20260184748A1, “COMPOSITIONS COMPRISING OCTADECANEUROPEPTIDES (ODN) AND SYNTHETIC DERIVATIVES THEREOF AND METHODS OF USE FOR MODULATION OF FOOD INTAKE, OBESITY, BODY WEIGHT, NAUSEA, AND EMESIS” (The Trustees of the University of Pennsylvania, priority 2022, published 2026):
Where “and” joins values, the source holds several entries; their conditions need not be identical. Equal entries are not always repeated. Where two headings read alike, the source gives them in different places. Where a SMILES comes first, the peptide text is derived from it. Where no end group is shown, it is not given here.

Key:
PTGIR = PTGIR (Homo sapiens, UniProt P43119); assay: Arrestin agonist mode; assay type: cell-based; details: read-out: RC50 (the source's name)
GPCR panel = assay: gpcrMAX agonist mode (beta-arrestin recruitment), GPCR Biosensor Assays; assay type: cell-based; design: Max Response: unit not given here
P2RY12 = P2RY12 (Homo sapiens, UniProt Q9H244); assay: Arrestin agonist mode; assay type: cell-based; details: read-out: RC50 (the source's name)
GPR109B = GPR109B (Homo sapiens, UniProt P49019); assay: Arrestin agonist mode; assay type: cell-based; details: read-out: RC50 (the source's name)
OXER1 = OXER1 (Homo sapiens, UniProt Q8TDS5); assay: Arrestin agonist mode; assay type: cell-based; details: read-out: RC50 (the source's name)
[1] = rat, in vivo
TBXA2R = TBXA2R (Homo sapiens, UniProt P21731); assay: Arrestin agonist mode; assay type: cell-based; details: read-out: RC50 (the source's name)
KISS1R = KISS1R (Homo sapiens, UniProt Q969F8); assay: Arrestin agonist mode; assay type: cell-based; details: read-out: RC50 (the source's name)
[2] = rat, in vivo, ip
MLNR = MLNR (Homo sapiens, UniProt O43193); assay: Arrestin agonist mode; assay type: cell-based; details: read-out: RC50 (the source's name)
GPR119 = GPR119 (Homo sapiens, UniProt Q8TDV5); assay: Arrestin agonist mode; assay type: cell-based; details: read-out: RC50 (the source's name)
PTAFR = PTAFR (Homo sapiens, UniProt P25105); assay: Arrestin agonist mode; assay type: cell-based; details: read-out: RC50 (the source's name)
P2RY6 = P2RY6 (Homo sapiens, UniProt Q15077); assay: Arrestin agonist mode; assay type: cell-based; details: read-out: RC50 (the source's name)
P2RY2 = P2RY2 (Homo sapiens, UniProt P41231); assay: Arrestin agonist mode; assay type: cell-based; details: read-out: RC50 (the source's name)
P2RY4 = P2RY4 (Homo sapiens, UniProt P51582); assay: Arrestin agonist mode; assay type: cell-based; details: read-out: RC50 (the source's name)
[3] = Kaolin intake (pica) in rats; assay type: in vivo, rat
[4] = shrews; for emetic episodes: intraperitoneal
NPSR1B = NPSR1B (Homo sapiens, UniProt Q6W5P4); assay: Arrestin agonist mode; assay type: cell-based; details: read-out: RC50 (the source's name)
[5] = 24 h body weight change in rats; assay type: in vivo, rat; details: 4th ventricle injection
DBI protein expression = assay: Hindbrain DBI immunohistochemistry and quantification; assay type: in vivo, rat; details: 4th ventricle Ex-4 0.3 μg/2 μL in 24 h fasted HFD-maintained rats
Protocol: Rats maintained on chow or HFD were either ad libitum fed or fasted for 24 h. […] Rats were deeply anesthetized with KAX and transcardially perfused with 0.1 M phosphate-buffered saline (PBS; pH 7.4) followed by 4% paraformaldehyde in 0.1 M PBS on ice. Brains were removed from the crania and post-fixed in 4% paraformaldehyde for 24 h, then stored in 20% sucrose in 0.1 M PBS at 4° C. until sunk. Coronal dorsal vagal complex (DVC) sections (30 μm) were sliced and collected directly onto slides (12-550-15; Superfrost Plus, Fisher Scientific) using a cryostat and stored at −80° C. until the start of immunohistochemistry (IHC). Briefly, tissue was washed with 0.1 M PBS 3 times for 8 minutes and then incubated in blocking solution [5% normal donkey serum (Jackson Immunoresearch) in PBST; PBS with 0.3% triton X] followed by overnight incubation in rabbit anti-DBI primary antibody (1:500; ab231910, Abcam) and chicken anti-vimentin primary antibody (1:2000; ab24525, Abcam) at 4° C. […] Slides were visualized using fluorescence microscopy (BZ-X810, Keyence). Images analysis to quantify the fluorescent intensity of DBI protein staining in the nucleus solitary tractus (NTS) and area postrema (AP) as well as the % colocalization of DBI and vimentin staining in the AP, subpostrema, and 4th ventricle boarder was done using the HALO@FISH-IF and Area Quantification FL modules.

Sequence of PTAFR (P25105 whole entry): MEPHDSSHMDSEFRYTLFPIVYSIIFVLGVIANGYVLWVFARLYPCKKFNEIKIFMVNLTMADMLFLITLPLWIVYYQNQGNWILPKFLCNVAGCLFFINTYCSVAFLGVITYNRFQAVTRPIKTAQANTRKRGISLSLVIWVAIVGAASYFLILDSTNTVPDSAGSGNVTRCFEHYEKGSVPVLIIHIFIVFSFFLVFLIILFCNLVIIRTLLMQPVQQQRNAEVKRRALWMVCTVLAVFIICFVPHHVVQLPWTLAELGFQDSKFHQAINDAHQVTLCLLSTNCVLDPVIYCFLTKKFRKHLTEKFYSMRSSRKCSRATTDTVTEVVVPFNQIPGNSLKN
Sequence of P2RY6 (Q15077 whole entry): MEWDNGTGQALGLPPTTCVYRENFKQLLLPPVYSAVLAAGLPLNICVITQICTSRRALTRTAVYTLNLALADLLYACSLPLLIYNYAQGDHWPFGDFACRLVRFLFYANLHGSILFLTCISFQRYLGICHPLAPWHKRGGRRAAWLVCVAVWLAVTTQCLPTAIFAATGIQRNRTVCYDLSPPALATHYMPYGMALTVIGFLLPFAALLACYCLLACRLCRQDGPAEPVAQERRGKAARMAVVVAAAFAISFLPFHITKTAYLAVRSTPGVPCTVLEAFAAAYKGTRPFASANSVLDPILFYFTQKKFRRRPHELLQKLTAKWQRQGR
Sequence of PTGIR (P43119 whole entry): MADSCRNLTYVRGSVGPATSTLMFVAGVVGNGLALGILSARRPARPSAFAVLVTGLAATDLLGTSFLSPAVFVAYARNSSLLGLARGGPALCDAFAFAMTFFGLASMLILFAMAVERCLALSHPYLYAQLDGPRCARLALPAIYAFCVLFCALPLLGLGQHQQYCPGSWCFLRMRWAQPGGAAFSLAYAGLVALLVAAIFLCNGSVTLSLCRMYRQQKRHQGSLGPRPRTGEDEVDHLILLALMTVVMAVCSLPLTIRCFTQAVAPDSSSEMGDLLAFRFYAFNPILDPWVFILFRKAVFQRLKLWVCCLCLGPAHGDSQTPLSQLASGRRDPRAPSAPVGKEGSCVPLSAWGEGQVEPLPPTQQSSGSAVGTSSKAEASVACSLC
Sequence of TBXA2R (P21731 whole entry): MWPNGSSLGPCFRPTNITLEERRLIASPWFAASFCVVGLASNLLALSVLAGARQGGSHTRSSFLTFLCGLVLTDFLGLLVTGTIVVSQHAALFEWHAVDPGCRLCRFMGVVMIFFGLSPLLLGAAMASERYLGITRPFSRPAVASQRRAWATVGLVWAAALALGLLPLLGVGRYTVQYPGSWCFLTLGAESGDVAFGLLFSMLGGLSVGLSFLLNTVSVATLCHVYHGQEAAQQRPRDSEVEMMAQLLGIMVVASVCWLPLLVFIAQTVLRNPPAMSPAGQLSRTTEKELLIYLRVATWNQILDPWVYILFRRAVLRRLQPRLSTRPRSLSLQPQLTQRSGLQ
Sequence of P2RY12 (Q9H244 whole entry, one chain of several): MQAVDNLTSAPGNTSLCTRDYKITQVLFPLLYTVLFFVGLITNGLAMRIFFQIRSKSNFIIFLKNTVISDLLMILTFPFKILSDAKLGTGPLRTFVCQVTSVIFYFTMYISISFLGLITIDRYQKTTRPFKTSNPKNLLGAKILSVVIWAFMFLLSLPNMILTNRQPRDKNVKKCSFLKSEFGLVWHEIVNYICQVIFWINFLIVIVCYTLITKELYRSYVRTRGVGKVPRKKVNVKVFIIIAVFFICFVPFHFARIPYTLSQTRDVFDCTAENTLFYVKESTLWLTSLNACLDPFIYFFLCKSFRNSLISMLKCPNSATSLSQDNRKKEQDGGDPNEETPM
Sequence of GPR109B (P49019 whole entry): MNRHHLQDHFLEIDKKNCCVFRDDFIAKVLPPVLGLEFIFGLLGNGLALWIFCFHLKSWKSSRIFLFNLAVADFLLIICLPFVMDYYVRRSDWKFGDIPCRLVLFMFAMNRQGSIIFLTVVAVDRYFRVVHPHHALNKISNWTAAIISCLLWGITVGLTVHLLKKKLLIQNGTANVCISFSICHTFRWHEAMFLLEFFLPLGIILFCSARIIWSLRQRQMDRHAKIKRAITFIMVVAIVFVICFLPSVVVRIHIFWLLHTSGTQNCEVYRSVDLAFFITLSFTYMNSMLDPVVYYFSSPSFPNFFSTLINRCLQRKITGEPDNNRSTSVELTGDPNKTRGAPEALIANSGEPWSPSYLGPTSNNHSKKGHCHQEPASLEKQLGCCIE
Sequence of MLNR (O43193 whole entry): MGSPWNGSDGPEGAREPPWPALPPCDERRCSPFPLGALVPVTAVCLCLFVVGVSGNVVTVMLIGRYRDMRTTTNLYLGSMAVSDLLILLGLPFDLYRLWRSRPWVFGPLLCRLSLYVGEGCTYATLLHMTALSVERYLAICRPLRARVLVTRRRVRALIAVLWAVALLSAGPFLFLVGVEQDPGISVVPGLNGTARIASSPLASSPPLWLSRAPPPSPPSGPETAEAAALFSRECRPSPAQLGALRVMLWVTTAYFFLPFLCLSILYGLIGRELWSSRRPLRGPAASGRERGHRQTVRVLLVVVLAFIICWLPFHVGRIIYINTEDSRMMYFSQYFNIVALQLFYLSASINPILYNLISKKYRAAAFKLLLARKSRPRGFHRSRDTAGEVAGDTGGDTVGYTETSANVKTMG
Sequence of GPR119 (Q8TDV5 whole entry): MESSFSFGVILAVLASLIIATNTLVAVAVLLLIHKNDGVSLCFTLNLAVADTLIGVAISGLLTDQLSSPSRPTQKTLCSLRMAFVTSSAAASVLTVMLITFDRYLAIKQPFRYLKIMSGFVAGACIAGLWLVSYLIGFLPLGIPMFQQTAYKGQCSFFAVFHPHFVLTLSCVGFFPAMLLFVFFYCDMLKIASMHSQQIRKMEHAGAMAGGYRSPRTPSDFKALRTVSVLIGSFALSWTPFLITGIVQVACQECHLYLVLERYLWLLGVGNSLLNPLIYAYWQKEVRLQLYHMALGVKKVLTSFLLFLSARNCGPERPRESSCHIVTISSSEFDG
Sequence of P2RY2 (P41231 whole entry): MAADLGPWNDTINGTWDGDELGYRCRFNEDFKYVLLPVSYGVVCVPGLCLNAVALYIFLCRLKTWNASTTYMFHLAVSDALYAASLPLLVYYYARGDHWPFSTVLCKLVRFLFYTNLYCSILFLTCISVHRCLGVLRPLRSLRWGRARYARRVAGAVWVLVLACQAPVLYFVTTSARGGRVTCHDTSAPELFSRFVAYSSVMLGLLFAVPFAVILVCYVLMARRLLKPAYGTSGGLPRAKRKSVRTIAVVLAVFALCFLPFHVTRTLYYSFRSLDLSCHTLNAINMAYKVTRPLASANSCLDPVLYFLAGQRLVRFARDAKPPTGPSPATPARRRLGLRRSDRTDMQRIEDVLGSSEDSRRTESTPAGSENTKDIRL
Sequence of NPSR1B (Q6W5P4 1-377 isoform Q6W5P4-4): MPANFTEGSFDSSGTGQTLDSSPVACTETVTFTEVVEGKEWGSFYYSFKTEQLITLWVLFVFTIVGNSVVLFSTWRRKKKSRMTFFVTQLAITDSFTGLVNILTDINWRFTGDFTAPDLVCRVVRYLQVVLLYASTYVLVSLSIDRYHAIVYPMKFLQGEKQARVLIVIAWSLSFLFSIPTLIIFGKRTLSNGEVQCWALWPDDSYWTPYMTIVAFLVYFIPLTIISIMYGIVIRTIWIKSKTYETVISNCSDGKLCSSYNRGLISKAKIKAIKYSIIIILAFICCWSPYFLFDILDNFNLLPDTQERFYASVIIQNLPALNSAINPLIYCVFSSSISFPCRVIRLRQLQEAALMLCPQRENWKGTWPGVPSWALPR
Sequence of KISS1R (Q969F8 whole entry): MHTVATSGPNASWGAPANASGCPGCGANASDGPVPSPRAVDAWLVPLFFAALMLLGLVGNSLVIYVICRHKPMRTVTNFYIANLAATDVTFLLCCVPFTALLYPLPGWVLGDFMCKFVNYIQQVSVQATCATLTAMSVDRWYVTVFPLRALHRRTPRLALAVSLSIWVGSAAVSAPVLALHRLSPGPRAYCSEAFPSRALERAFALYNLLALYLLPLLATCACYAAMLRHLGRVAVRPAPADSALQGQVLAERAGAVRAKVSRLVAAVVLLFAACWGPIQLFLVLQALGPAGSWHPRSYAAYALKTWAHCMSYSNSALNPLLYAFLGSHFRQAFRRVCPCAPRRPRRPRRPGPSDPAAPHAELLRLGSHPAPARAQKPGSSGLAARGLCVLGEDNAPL
Sequence of P2RY4 (P51582 whole entry): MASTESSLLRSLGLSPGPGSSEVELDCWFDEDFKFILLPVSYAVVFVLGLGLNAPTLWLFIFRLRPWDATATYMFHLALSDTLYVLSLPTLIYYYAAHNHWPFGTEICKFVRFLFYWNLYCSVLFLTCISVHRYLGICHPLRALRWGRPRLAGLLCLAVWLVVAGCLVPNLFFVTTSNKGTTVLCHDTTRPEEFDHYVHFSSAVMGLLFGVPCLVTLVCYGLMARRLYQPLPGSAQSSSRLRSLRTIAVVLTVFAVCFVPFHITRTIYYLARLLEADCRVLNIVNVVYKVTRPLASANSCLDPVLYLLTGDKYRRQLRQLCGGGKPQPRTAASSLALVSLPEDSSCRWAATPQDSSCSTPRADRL
Sequence of OXER1 (Q8TDS5 whole entry): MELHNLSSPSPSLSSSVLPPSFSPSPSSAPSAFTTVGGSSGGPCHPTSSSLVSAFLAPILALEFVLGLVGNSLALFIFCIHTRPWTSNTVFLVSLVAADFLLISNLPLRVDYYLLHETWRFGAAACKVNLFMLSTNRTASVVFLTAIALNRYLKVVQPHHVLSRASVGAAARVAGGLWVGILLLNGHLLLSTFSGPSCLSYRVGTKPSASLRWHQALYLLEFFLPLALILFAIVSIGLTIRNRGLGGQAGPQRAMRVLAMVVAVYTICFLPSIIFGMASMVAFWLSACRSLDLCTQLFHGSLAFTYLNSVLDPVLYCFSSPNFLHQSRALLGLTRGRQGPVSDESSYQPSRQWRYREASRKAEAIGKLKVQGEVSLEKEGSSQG

CC#CCC(C)[C@H](O)/C=C/[C@@H]1[C@H]2c3cccc(CCCC(=O)O)c3O[C@H]2C[C@H]1O (mixture of isomers) [Beraprost]
EC50 (PTGIR): 219 nM

COc1ccc2[nH]c(I)c(CCNC(C)=O)c2c1 [2-Iodomelatonin]
EC80 (GPCR panel): 2.77 nM
Max Response (GPCR panel): 102.67

CSc1nc(N)c2ncn([C@@H]3O[C@H](COP(=O)(O)OP(=O)(O)O)[C@@H](O)[C@H]3O)c2n1 [2-methylthio-ADP]
EC50 (P2RY12): 2.72 nM

CCCCCC(O)CC(=O)O (stereo not drawn) [3-Hydroxyoctanoic Acid]
EC50 (GPR109B): 373000 nM

CCCCC/C=C\C/C=C\C/C=C\C=C\C(=O)CCCC(=O)O [5-OxoETE]
EC50 (OXER1): 1140 nM

CC(C)C[C@H](NC(=O)CNC(=O)[C@@H]1CCCN1C(=O)[C@@H](N)CCCNC(=N)N)C(=O)N[C@H](CC(C)C)C(=O)N[C@@H](CC(=O)O)C(=O)N[C@@H](CC(C)C)C(=O)N[C@@H](CCCCN)C(N)=O [AntOP, Arg-Pro-Gly-Leu-(D-Leu)-Asp-Leu-Lys] (HELM PEPTIDE1{R.P.G.L.[dL].D.L.K.[am]}$$$$V2.0)
effect of pretreatment on Ex-4-induced kaolin intake [1]: did not significantly elevate kaolin intake relative to controls

CCCCCCC(C)(C)c1ccc([C@@H]2C[C@H](O)CC[C@H]2CCCO)c(O)c1 [CP55940]
Max Response (GPCR panel): 104.27 and 99.599

CC(C)C[C@H](NC(=O)[C@H](CCCCN)NC(=O)CNC(=O)[C@H](CC(C)C)NC(=O)[C@@H](NC(=O)[C@@H]1CSSC[C@H](N)C(=O)N[C@@H](CO)C(=O)N[C@@H](CC(N)=O)C(=O)N[C@@H](CC(C)C)C(=O)N[C@@H](CO)C(=O)N[C@@H]([C@@H](C)O)C(=O)N1)C(C)C)C(=O)N[C@@H](CO)C(=O)N[C@@H](CCC(N)=O)C(=O)N[C@@H](CCC(=O)O)C(=O)N[C@@H](CC(C)C)C(=O)N[C@@H](Cc1c[nH]cn1)C(=O)N[C@@H](CCCCN)C(=O)N[C@@H](CC(C)C)C(=O)N[C@@H](CCC(N)=O)C(=O)N[C@H](C(=O)N[C@@H](Cc1ccc(O)cc1)C(=O)N1CCC[C@H]1C(=O)N[C@@H](CCCNC(=N)N)C(=O)N[C@H](C(=O)N[C@@H](CC(N)=O)C(=O)N[C@H](C(=O)NCC(=O)N[C@@H](CO)C(=O)NCC(=O)N[C@H](C(=O)N1CCC[C@H]1C(N)=O)[C@@H](C)O)[C@@H](C)O)[C@@H](C)O)[C@@H](C)O [Calcitonin]
Max Response (GPCR panel): 102.54 and 108.07 and 103.06

O=C(O)CCC/C=C\C[C@@H]1[C@@H](/C=C/[C@@H](O)COc2ccc(I)cc2)[C@H]2CC[C@@H]1O2 [I-BOP]
EC50 (TBXA2R): 21.3 nM

CC(C)C[C@H](NC(=O)CNC(=O)[C@H](Cc1ccccc1)NC(=O)[C@H](CO)NC(=O)[C@H](CC(N)=O)NC(=O)[C@H](Cc1c[nH]c2ccccc12)NC(=O)[C@H](CC(N)=O)NC(=O)[C@@H](N)Cc1ccc(O)cc1)C(=O)N[C@@H](CCCNC(=N)N)C(=O)N[C@@H](Cc1ccccc1)C(N)=O [Kisspeptin-10]
EC50 (KISS1R): 17.6 nM

CCCCCCCCCCCCCCCC(=O)N[C@@H](CCC(=O)NCCCC[C@H](NC(=O)[C@H](C)NC(=O)[C@H](C)NC(=O)[C@H](CCC(N)=O)NC(=O)CNC(=O)[C@H](CCC(=O)O)NC(=O)[C@H](CC(C)C)NC(=O)[C@H](Cc1ccc(O)cc1)NC(=O)[C@H](CO)NC(=O)[C@H](CO)NC(=O)[C@@H](NC(=O)[C@H](CC(=O)O)NC(=O)[C@H](CO)NC(=O)[C@@H](NC(=O)[C@H](Cc1ccccc1)NC(=O)[C@@H](NC(=O)CNC(=O)[C@H](CCC(=O)O)NC(=O)[C@H](C)NC(=O)[C@@H](N)Cc1cnc[nH]1)[C@@H](C)O)[C@@H](C)O)C(C)C)C(=O)N[C@@H](CCC(=O)O)C(=O)N[C@@H](Cc1ccccc1)C(=O)N[C@H](C(=O)N[C@@H](C)C(=O)N[C@@H](Cc1c[nH]c2ccccc12)C(=O)N[C@@H](CC(C)C)C(=O)N[C@H](C(=O)N[C@@H](CCCNC(=N)N)C(=O)NCC(=O)N[C@@H](CCCNC(=N)N)C(=O)NCC(=O)O)C(C)C)[C@@H](C)CC)C(=O)O [Liraglutide, liraglutide]
kaolin intake [2]: Kaolin intake was increased

CC[C@H](C)[C@H](NC(=O)[C@@H]1CCCN1C(=O)[C@@H](NC(=O)[C@@H](N)Cc1ccccc1)C(C)C)C(=O)N[C@@H](Cc1ccccc1)C(=O)N[C@H](C(=O)N[C@@H](Cc1ccc(O)cc1)C(=O)NCC(=O)N[C@@H](CCC(=O)O)C(=O)N[C@@H](CC(C)C)C(=O)N[C@@H](CCC(N)=O)C(=O)N[C@@H](CCCNC(=N)N)C(=O)N[C@@H](CCSC)C(=O)N[C@@H](CCC(N)=O)C(=O)N[C@@H](CCC(=O)O)C(=O)N[C@@H](CCCCN)C(=O)N[C@@H](CCC(=O)O)C(=O)N[C@@H](CCCNC(=N)N)C(=O)N[C@@H](CC(N)=O)C(=O)N[C@@H](CCCCN)C(=O)NCC(=O)N[C@@H](CCC(N)=O)C(=O)O)[C@@H](C)O [Motilin]
EC50 (MLNR): 1.59 nM

CCCCCCCC/C=C\CCCCCCCC(=O)NCCO [Oleoyl Ethanolamide]
EC50 (GPR119): 1840 nM

CCCCCCCCCCCCCCCCOC[C@H](COP(=O)([O-])OCC[N+](C)(C)C)OC(C)=O [PAF]
EC50 (PTAFR): 3.82 nM

CC[C@H](C)[C@H](NC(=O)CNC(=O)[C@H](CCCNC(=N)N)NC(=O)[C@H](CO)NC(=O)[C@H](C)NC(=O)[C@H](Cc1ccc(O)cc1)NC(=O)[C@H](Cc1c[nH]c2ccccc12)NC(=O)[C@H](C)NC(=O)[C@@H]1CCCN1C(=O)[C@H](CC(N)=O)NC(=O)[C@@H](NC(=O)[C@H](CC(=O)O)NC(=O)[C@@H]1CCCN1C(=O)[C@@H](NC(=O)[C@H](CCCNC(=N)N)NC(=O)[C@@H](NC(=O)[C@H](CCC(=O)O)NC(=O)[C@H](CCSC)NC(=O)[C@H](CO)NC(=O)[C@H](Cc1c[nH]cn1)NC(=O)[C@H](CCCNC(=N)N)NC(=O)[C@H](Cc1c[nH]cn1)NC(=O)[C@@H](NC(=O)[C@H](CCCNC(=N)N)NC(=O)[C@@H](N)CO)[C@@H](C)O)[C@@H](C)CC)[C@@H](C)O)[C@@H](C)CC)C(=O)N[C@@H](CCCNC(=N)N)C(=O)N1CCC[C@H]1C(=O)N[C@H](C(=O)NCC(=O)N[C@@H](CCCNC(=N)N)C(=O)N[C@@H](Cc1ccccc1)C(N)=O)C(C)C [PrRP-31]
EC80 (GPCR panel): 10.72 nM
Max Response (GPCR panel): 101.19

O=c1ccn([C@@H]2O[C@H](COP(=O)(O)OP(=O)(O)O)[C@@H](O)[C@H]2O)c(=O)[nH]1 [UDP]
EC50 (P2RY6): 13.3 nM

O=c1ccn([C@@H]2O[C@H](COP(=O)(O)OP(=O)(O)OP(=O)(O)O)[C@@H](O)[C@H]2O)c(=O)[nH]1 [UTP]
EC50 (P2RY2): 431 nM
EC50 (P2RY4): 126 nM

DVNTDRPGLLDLK-NH2 [TDN]
kaolin intake ([3]; 4th ventricle injection, HFD-maintained rats): mildly increase kaolin intake in HFD-maintained rats
kaolin intake ([3]; 4th ventricle injection, chow-maintained rats): did not alter kaolin intake in chow rats
kaolin intake ([3]; lateral ventricle injection, chow and HFD rats): did not affect kaolin intake

QATVGDVNTDRPGLLDLK-NH2 [ODN]
emesis ([4]; intraperitoneal 500 μg/kg or 5000 μg/kg): without including emesis
emetic episodes ([4]; high ODN dose): no emetic episodes were observed
emetic episodes ([4]; low ODN dose): one of 9 shrews had an emetic episode

SFRNGVGTGMKKTSFQRAKS [Neuropeptide S]
EC50 (NPSR1B): 23.6 nM

exendin-4 [Ex-4]
24 h body weight change ([5]; HFD-maintained rats): decreased 24 h body weight change relative to controls
24 h body weight change ([5]; chow-maintained rats): decreased 24 h body weight change relative to controls
DBI protein expression in NTS and AP (DBI protein expression): not different between treatments in HFD-maintained rats
